Experimental data taken from patent publication US8415351B2 (priority 2007, dated 2013).

Tests used:
[1] = target: T1, HCV polymerase 1B (Δ21 NS5B, BK) (Hepatitis C virus genotype 1b, UniProt P26663); test: biochemical
T1 construct: 20 to 50 nM Δ21 NS5B
How it was run: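 Δ21 NS5B (genotype 1b, BK […]) preincubated 15 min RT with inhibitor, 2 mM MnCl2, pH 7.4, 60–125 μM GTP; started with 20 μM CTP/ATP, 1 μM 3H-UTP, 5 nM template RNA, run 2–4 h RT. Spermine-precipitated RNA filter-captured, scintillation counted; IC50 from tight-binding (Morrison) fit.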

[2] = target: T2, HCV polymerase 1A (Δ21 NS5B, H77) (Hepatitis C virus genotype 1a, UniProt P27958); test: biochemical; details: IC50 1a
T2 construct: 20 to 50 nM Δ21 NS5B
T2 sequence (P27958 2421-2990, stated change not applied): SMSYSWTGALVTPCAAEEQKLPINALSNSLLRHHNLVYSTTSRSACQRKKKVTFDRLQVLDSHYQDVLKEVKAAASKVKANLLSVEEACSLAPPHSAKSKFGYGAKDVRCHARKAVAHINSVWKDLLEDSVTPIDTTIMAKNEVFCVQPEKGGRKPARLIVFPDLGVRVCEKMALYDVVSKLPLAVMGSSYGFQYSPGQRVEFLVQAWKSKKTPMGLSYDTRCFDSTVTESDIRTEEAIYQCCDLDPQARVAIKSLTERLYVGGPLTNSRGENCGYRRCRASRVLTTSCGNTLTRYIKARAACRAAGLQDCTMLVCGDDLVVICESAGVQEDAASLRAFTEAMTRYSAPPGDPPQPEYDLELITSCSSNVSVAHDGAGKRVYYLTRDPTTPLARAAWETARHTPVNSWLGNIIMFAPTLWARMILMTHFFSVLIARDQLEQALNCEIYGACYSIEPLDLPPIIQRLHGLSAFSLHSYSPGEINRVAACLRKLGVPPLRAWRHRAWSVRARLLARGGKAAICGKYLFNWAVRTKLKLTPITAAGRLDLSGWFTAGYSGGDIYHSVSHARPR
How it was run: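 Radiometric assay with Δ21 NS5B (H77): 20 μM CTP, 20 μM ATP, 1 μM ^3H-UTP, 5 nM template RNA, 2–4 h at room temperature. RNA precipitated with spermine, filter-captured and counted. IC50 from non-linear fit of retained cpm vs inhibitor concentration (tight-binding equation).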

[3] = tested on: genotype 1b-Con1 subgenomic replicon cell line; test: microbe, parasite or virus in culture; assay type: cell-based, HCV; details: Hepatitis C virus, read-out: EC50 1b
[4] = tested on: genotype 1a-H77 subgenomic replicon cell line; test: microbe, parasite or virus in culture; assay type: cell-based, HCV; details: Hepatitis C virus, read-out: EC50 1a

T1 sequence (P26663 2420-2989, stated change not applied): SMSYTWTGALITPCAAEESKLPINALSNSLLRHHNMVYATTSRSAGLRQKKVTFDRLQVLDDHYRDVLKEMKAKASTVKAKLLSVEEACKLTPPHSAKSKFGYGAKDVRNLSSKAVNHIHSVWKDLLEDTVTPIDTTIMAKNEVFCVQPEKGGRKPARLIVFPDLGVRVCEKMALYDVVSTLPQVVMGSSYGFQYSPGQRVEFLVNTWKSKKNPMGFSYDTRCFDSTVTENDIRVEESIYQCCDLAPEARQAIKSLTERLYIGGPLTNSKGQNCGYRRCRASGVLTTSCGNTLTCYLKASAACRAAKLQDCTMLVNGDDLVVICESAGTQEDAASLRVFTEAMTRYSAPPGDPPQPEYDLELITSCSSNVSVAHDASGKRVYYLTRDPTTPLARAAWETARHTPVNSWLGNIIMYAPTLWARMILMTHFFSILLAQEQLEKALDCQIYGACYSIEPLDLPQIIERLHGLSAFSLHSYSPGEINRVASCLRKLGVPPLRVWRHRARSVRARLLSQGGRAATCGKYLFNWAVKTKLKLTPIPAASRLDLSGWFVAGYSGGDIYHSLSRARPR

Compound	IC50 [1] [nM]	IC50 [2] [nM]	EC50 [3] [nM]	EC50 [4] [nM]
COc1c(-c2ccc3c(c2)CCC3(F)CNS(C)(=O)=O)cc(-n2ccc(=O)[nH]c2=O)cc1C(C)(C)C (centres unmarked) [IB-L0-2.12, N-((5-(3-tert-butyl-5-(2,4-dioxo-3,4-dihydropyrimidin-1(2H)-yl)-2-methoxyphenyl)-1-fluoro-2,3-dihydro-1H-inden-1-yl)methyl)methanesulfonamide]	10 to 100	< 10	< 10	10 to 100
COc1c(-c2ccc3c(c2)CC=C3CNS(C)(=O)=O)cc(-n2ccc(=O)[nH]c2=O)cc1C(C)(C)C [IB-L0-2.13, N-((6-(3-tert-butyl-5-(2,4-dioxo-3,4-dihydropyrimidin-1(2H)-yl)-2-methoxyphenyl)-1H-inden-3-yl)methyl)methanesulfonamide]	10 to 100	< 10	< 10	10 to 100
COc1c(-c2ccc3c(c2)CCC3CNS(C)(=O)=O)cc(-n2ccc(=O)[nH]c2=O)cc1C(C)(C)C (centres unmarked) [IB-L0-2.17, N-((5-(3-tert-butyl-5-(2,4-dioxo-3,4-dihydropyrimidin-1(2H)-yl)-2-methoxyphenyl)-2,3-dihydro-1H-inden-1-yl)methyl)methanesulfonamide]	10 to 100	< 10	< 10	10 to 100
COc1c(-c2ccc3c(CNS(C)(=O)=O)coc3c2)cc(-n2ccc(=O)[nH]c2=O)cc1C(C)(C)C [IB-L0-2.18, N-((6-(3-tert-butyl-5-(2,4-dioxo-3,4-dihydropyrimidin-1(2H)-yl)-2-methoxyphenyl)benzofuran-3-yl)methyl)methanesulfonamide]	10 to 100	< 10	10 to 100	100 to 1000
COc1c(-c2ccc3c(CN(C)S(C)(=O)=O)csc3c2)cc(-n2ccc(=O)[nH]c2=O)cc1C(C)(C)C [IB-L0-2.21, N-((6-(3-tert-butyl-5-(2,4-dioxo-3,4-dihydropyrimidin-1(2H)-yl)-2-methoxyphenyl)benzo[b]thiophen-3-yl)methyl)-N-methylmethanesulfonamide]	10 to 100	10 to 100	10 to 100	100 to 1000
COC(=O)NN=C1CCc2cc(-c3cc(-n4ccc(=O)[nH]c4=O)cc(C(C)(C)C)c3OC)ccc21 [IB-L0-2.24, methyl 2-(5-(3-tert-butyl-5-(2,4-dioxo-3,4-dihydropyrimidin-1(2H)-yl)-2-methoxyphenyl)-2,3-dihydro-1H-inden-1-ylidene)hydrazinecarboxylate]	10 to 100	10 to 100	10 to 100	10 to 100
COc1c(-c2ccc3c(c2)CCC3(C)CNS(C)(=O)=O)cc(-n2ccc(=O)[nH]c2=O)cc1C(C)(C)C (centres unmarked) [IB-L0-2.25, N-((5-(3-tert-butyl-5-(2,4-dioxo-3,4-dihydropyrimidin-1(2H)-yl)-2-methoxyphenyl)-1-methyl-2,3-dihydro-1H-inden-1-yl)methyl)methanesulfonamide]	10 to 100	10 to 100	10 to 100	100 to 1000
COc1c(-c2ccc3c(c2)CCC3C(C)(C)NS(C)(=O)=O)cc(-n2ccc(=O)[nH]c2=O)cc1C(C)(C)C (centres unmarked) [IB-L0-2.29, N-(2-(5-(3-tert-butyl-5-(2,4-dioxo-3,4-dihydropyrimidin-1(2H)-yl)-2-methoxyphenyl)-2,3-dihydro-1H-inden-1-yl)propan-2-yl)methanesulfonamide]	10 to 100	10 to 100	10 to 100	100 to 1000
COc1c(-c2ccc3c(c2)CCC3NNS(C)(=O)=O)cc(-n2ccc(=O)[nH]c2=O)cc1C(C)(C)C (centres unmarked) [IB-L0-2.31, N′-(5-(3-tert-butyl-5-(2,4-dioxo-3,4-dihydropyrimidin-1(2H)-yl)-2-methoxyphenyl)-2,3-dihydro-1H-inden-1-yl)methanesulfonohydrazide]	10 to 100	10 to 100	10 to 100	100 to 1000
COc1c(-c2ccc3c(c2)CCC3C(=O)NS(C)(=O)=O)cc(-n2ccc(=O)[nH]c2=O)cc1C(C)(C)C (centres unmarked) [IB-L0-2.34, 5-(3-tert-butyl-5-(2,4-dioxo-3,4-dihydropyrimidin-1(2H)-yl)-2-methoxyphenyl)-N-(methylsulfonyl)-2,3-dihydro-1H-indene-1-carboxamide]	10 to 100	10 to 100	100 to 1000	> 1000
CC(C)(C)c1cc(-n2ccc(=O)[nH]c2=O)cc(-c2ccc3c(CNS(C)(=O)=O)csc3c2)c1Cl [IB-L0-2.35, N-((6-(3-tert-butyl-2-chloro-5-(2,4-dioxo-3,4-dihydropyrimidin-1(2H)-yl)phenyl)benzo[b]thiophen-3-yl)methyl)methanesulfonamide]	10 to 100	10 to 100	100 to 1000	> 1000
COc1c(-c2ccc3c(c2)CCC3O)cc(-n2ccc(=O)[nH]c2=O)cc1C(C)(C)C (centres unmarked) [IB-L0-2.36, 1-(3-tert-butyl-5-(1-hydroxy-2,3-dihydro-1H-inden-5-yl)-4-methoxyphenyl)pyrimidine-2,4(1H,3H)-dione]	100 to 1000	10 to 100	10 to 100	100 to 1000
COc1c(-c2ccc3cc(CNS(C)(=O)=O)sc3c2)cc(-n2ccc(=O)[nH]c2=O)cc1C(C)(C)C [IB-L0-2.40, N-((6-(3-tert-butyl-5-(2,4-dioxo-3,4-dihydropyrimidin-1(2H)-yl)-2-methoxyphenyl)benzo[b]thiophen-2-yl)methyl)methanesulfonamide]	100 to 1000	100 to 1000	100 to 1000	> 1000
COc1c(-c2ccc3c(c2)CCC3NS(C)(=O)=O)cc(-n2ccc(=O)[nH]c2=O)cc1C(C)(C)C (centres unmarked) [IB-L0-2.44, N-(5-(3-tert-butyl-5-(2,4-dioxo-3,4-dihydropyrimidin-1(2H)-yl)-2-methoxyphenyl)-2,3-dihydro-1H-inden-1-yl)methanesulfonamide]	100 to 1000	100 to 1000	> 1000	> 1000
COc1c(-c2ccc3c(c2)CCC3=O)cc(-n2ccc(=O)[nH]c2=O)cc1C(C)(C)C [IB-L0-2.50, 1-(3-tert-butyl-4-methoxy-5-(1-oxo-2,3-dihydro-1H-inden-5-yl)phenyl)pyrimidine-2,4(1H,3H)-dione]	10 to 100	10 to 100	100 to 1000	100 to 1000
COc1c(-c2ccsc2)cc(-n2ccc(=O)[nH]c2=O)cc1-c1ccc2c(c1)CC=C2CNS(C)(=O)=O [IB-L0-2.62, N-((6-(5-(2,4-dioxo-3,4-dihydropyrimidin-1(2H)-yl)-2-methoxy-3-(thiophen-3-yl)phenyl)-1H-inden-3-yl)methyl)methanesulfonamide]	10 to 100	10 to 100	10 to 100	100 to 1000
COc1c(-c2ccc3c(c2)CC=C3CNS(C)(=O)=O)cc(-n2ccc(=O)[nH]c2=O)cc1-c1cccs1 [IB-L0-2.63, N-((6-(5-(2,4-dioxo-3,4-dihydropyrimidin-1(2H)-yl)-2-methoxy-3-(thiophen-2-yl)phenyl)-1H-inden-3-yl)methyl)methanesulfonamide]	10 to 100	10 to 100	10 to 100	100 to 1000
